Measurements as given in paper PMC10298982, “Stability Characterization of the Novel Anti-Cancer HM-10/10 HDL-Mimetic Peptide” (International Journal of Molecular Sciences, 2023).
Like-named read-outs stand apart in the source and are kept apart here. Ends that are not written are not given here.

Assays:
[1] = Metabolic stability in cryopreserved beagle dog hepatocytes; format: in vitro ADME; details: Beagle dog hepatocytes 0.5 million cells/mL; for CLint scaled: dog, hepatocytes, 2 μM
in vitro [2] = details: beagle, dog, plasma, pH 7.4
CYP1A2 = CYP1A2 induction (mRNA expression) in single-donor human hepatocytes; format: in vitro ADME
Protocol: (§1) RNA isolation and quantification: E-Z 96 Total RNA Kit (Omega Bio-tek, Catalog No. R1034-02) was used for RNA isolation and Quant-iT RNA assay kit (ThermoFisher, Catalog No. Q33140) was used for RNA quantification. The plates were removed from a −80 °C freezer and equilibrated to room temperature. RNA was extracted using the manufacturer’s recommended protocol. Eighty-one microliters of 100% ethanol were added into each well containing 150 µL of lysed sample to make a final ethanol concentration at 35%.
(§2) cDNA generation: For cDNA generation, a High-Capacity cDNA Reverse Transcription Kit (Applied Biosystems, Catalog No. 4319983) and QuantStudio 3 PCR system (Applied Biosystems) were used. In this step, 2X Reverse Transcription Master Mix was prepared using the contents of the kit. Then, 10 µL of total RNA was added to 10 µL of 2X Reverse Transcription Master Mix in a microplate and the plate was sealed. This plate was then run in a thermocycler to generate cDNA.
(§3) Real time PCR: SsoAdvanced Universal SYBR® Green Supermix (BIO-RAD, Catalog No. 172-5270) and the QuantStudio 3 Real-Time PCR system (Applied Biosystems) were used to perform real-time PCR on the generated cDNA. In this step, a PCR mix was prepared using PCR Supermix, SYBR® primers for the targeted genes, and nuclease-free water. Two microliters of ten-fold diluted cDNA samples (5 µL of cDNA into 45 μL of nuclease-free water) were added to 8 µL of PCR Mix in a microplate and sealed. This plate was then run through the Real-Time PCR system to generate the mRNA expression data.
(§4) • Human GAPDH • F: […] • R: […] • Human CYP1A2 • Unique Assay ID: qHsaCID0015160 • Chromosome Location: 15:75045562-75047256 • Human CYP2B6 • F: […] • R: […] • Human CYP3A4 • F: […] • R: […]

CYP2D6 = CYP2D6 (Homo sapiens, UniProt P10635); details: microsomes
in vitro [3] = details: CD-1, mouse, plasma, pH 7.4
[4] = Stability in simulated intestinal fluid (SIF); format: in vitro ADME
Protocol: When developing any potentially oral-route pharmaceutical agent, the denaturing and pepsin-rich environment of the stomach must be considered. The stability of HM-10/10 was tested in simulated gastric fluid (SGF) and simulated intestinal fluid (SIF) over 120 min. […] Samples were tested at 2 μM.
For the HM-10/10 stability assay in simulated gastric and intestinal fluids, propantheline was used to confirm retention time and carbutamide was used as the internal standard for calculations.

[5] = test system: beagle dog plasma proteins; assay: Protein binding in beagle dog plasma (ultracentrifugation); details: Beagle dog plasma (K2EDTA); 2 μM; 2.5 h at 37 °C
[6] = as above; details: beagle, dog, plasma (K2EDTA), pH 7.4
CYP2B6 = CYP2B6 induction (mRNA expression) in single-donor human hepatocytes; format: in vitro ADME
Protocol: as §1, §2, §3, §4

Chain of CYP2D6 (P10635 whole entry): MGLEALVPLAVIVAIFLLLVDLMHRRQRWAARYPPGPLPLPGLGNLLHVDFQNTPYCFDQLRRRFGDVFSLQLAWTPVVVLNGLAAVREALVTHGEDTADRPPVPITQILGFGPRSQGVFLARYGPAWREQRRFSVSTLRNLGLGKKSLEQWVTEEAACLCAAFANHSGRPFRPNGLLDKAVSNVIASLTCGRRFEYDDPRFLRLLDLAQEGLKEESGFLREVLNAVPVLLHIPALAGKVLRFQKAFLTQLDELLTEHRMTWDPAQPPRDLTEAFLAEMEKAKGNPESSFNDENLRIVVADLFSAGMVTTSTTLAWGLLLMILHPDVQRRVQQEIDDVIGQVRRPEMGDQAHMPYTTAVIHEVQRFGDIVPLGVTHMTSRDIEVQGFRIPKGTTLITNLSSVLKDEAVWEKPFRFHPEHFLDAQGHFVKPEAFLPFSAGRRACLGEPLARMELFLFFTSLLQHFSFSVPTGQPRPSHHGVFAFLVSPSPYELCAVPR

half-life at 2 µM ([1]; cryopreserved hepatocytes): 10.7 min | remaining at 0.5 h, 2 µM ([1]; cryopreserved hepatocytes, read-out: % Remaining at 30 min): 16% | CLint scaled ([1]; read-out: CLint (L/hr/kg) (converted)): 42 L/h/kg | CLint scaled ([1]; read-out: CLint (mL/min/kg)): 41.9 L/h/kg | half-life at 2 µM (in vitro [2]): 54.6 min | remaining at 2 h, 2 µM (in vitro [2]): 24.8% | Fold Increase (mRNA Expression) Lot HH1086 (CYP1A2; 2 µM): 1.69 fold | Fold Increase (mRNA Expression) Lot HH1142 (CYP1A2; 2 µM): 2.24 fold | Fold Increase (mRNA Expression) Lot HH1144 (CYP1A2; 2 µM): 1.81 fold | Fold Increase (mRNA Expression) Mean of 3 Lots (CYP1A2; 2 µM): 1.91 fold | Comments (mRNA induction) (CYP1A2; 10 µM): Induction Observed | Fold Increase (mRNA Expression) Lot HH1086 (CYP1A2; 10 µM): 2.75 fold | Fold Increase (mRNA Expression) Lot HH1142 (CYP1A2; 10 µM): 3.24 fold | Fold Increase (mRNA Expression) Lot HH1144 (CYP1A2; 10 µM): 1.75 fold | Fold Increase (mRNA Expression) Mean of 3 Lots (CYP1A2; 10 µM): 2.58 fold | Comments (mRNA induction) (CYP1A2; 25 µM): Induction Observed | Fold Increase (mRNA Expression) Lot HH1086 (CYP1A2; 25 µM): 2.74 fold | Fold Increase (mRNA Expression) Lot HH1142 (CYP1A2; 25 µM): 3.01 fold | Fold Increase (mRNA Expression) Lot HH1144 (CYP1A2; 25 µM): 1.13 fold | Fold Increase (mRNA Expression) Mean of 3 Lots (CYP1A2; 25 µM): 2.29 fold | % Inhibition at 50 µM No PI + NADPH (CYP2D6): 6.0% | % Inhibition at 50 µM No PI − NADPH (CYP2D6): 17.2% | % Inhibition at 50 µM PI + NADPH (CYP2D6): 17.0% | % Inhibition at 50 µM PI − NADPH (CYP2D6): 19.7% | half-life at 2 µM (in vitro [3]): 5.68 min | remaining at 2 h, 2 µM (in vitro [3]): 23.9% | Compound detected after 20 min under SIF conditions ([4]; SIF, 2 μM, 20 min): no HM-10/10 could be detected | half-life at 2 µM ([4]; simulated intestinal fluid (SIF), SIF pH 5.5): 2.72 min | % Protein Bound Mean ± SD [5]: 35.2 ± 26.5% | % Protein Free Mean ± SD [5]: 64.8 ± 26.5% | fraction unbound at 2.5 h, 2 µM [6]: 0.648 ± 0.265 | remaining at 2.5 h, 2 µM [6]: 29.2% | Comments (mRNA induction) (CYP2B6; 2 µM): Induction Observed | Fold Increase (mRNA Expression) Lot HH1086 (CYP2B6; 2 µM): 2.03 fold | Fold Increase (mRNA Expression) Lot HH1142 (CYP2B6; 2 µM): 9.76 fold | Fold Increase (mRNA Expression) Lot HH1144 (CYP2B6; 2 µM): 2.86 fold | Fold Increase (mRNA Expression) Mean of 3 Lots (CYP2B6; 2 µM): 4.88 fold | Comments (mRNA induction) (CYP2B6; 10 µM): Induction Observed | Fold Increase (mRNA Expression) Lot HH1086 (CYP2B6; 10 µM): 2.54 fold | Fold Increase (mRNA Expression) Lot HH1142 (CYP2B6; 10 µM): 7.08 fold | Fold Increase (mRNA Expression) Lot HH1144 (CYP2B6; 10 µM): 3.33 fold | Fold Increase (mRNA Expression) Mean of 3 Lots (CYP2B6; 10 µM): 4.32 fold | Comments (mRNA induction) (CYP2B6; 25 µM): Induction Observed | Fold Increase (mRNA Expression) Lot HH1086 (CYP2B6; 25 µM): 1.26 fold | Fold Increase (mRNA Expression) Lot HH1142 (CYP2B6; 25 µM): 5.04 fold | Fold Increase (mRNA Expression) Lot HH1144 (CYP2B6; 25 µM): 1.92 fold | Fold Increase (mRNA Expression) Mean of 3 Lots (CYP2B6; 25 µM): 2.74 fold
Sequence: LRKLRKRLLRLVGRQLEEFL [HM-10/10, LRKLRKRLLRLVGRQLEEFL]
